Reference: ChEMBL document CHEMBL1933021, “Novel and selective spiroindoline-based inhibitors of Sky kinase” (Bioorg Med Chem Lett, 2012)

Key:
[1] = biological target: Proto-oncogene tyrosine-protein kinase Src (Homo sapiens, UniProt P12931); test: Inhibition of Src
[2] = biological target: T1, Tyrosine-protein kinase Mer (Homo sapiens, UniProt Q12866); test: Inhibition of Mer
T1 sequence (Q12866 whole entry): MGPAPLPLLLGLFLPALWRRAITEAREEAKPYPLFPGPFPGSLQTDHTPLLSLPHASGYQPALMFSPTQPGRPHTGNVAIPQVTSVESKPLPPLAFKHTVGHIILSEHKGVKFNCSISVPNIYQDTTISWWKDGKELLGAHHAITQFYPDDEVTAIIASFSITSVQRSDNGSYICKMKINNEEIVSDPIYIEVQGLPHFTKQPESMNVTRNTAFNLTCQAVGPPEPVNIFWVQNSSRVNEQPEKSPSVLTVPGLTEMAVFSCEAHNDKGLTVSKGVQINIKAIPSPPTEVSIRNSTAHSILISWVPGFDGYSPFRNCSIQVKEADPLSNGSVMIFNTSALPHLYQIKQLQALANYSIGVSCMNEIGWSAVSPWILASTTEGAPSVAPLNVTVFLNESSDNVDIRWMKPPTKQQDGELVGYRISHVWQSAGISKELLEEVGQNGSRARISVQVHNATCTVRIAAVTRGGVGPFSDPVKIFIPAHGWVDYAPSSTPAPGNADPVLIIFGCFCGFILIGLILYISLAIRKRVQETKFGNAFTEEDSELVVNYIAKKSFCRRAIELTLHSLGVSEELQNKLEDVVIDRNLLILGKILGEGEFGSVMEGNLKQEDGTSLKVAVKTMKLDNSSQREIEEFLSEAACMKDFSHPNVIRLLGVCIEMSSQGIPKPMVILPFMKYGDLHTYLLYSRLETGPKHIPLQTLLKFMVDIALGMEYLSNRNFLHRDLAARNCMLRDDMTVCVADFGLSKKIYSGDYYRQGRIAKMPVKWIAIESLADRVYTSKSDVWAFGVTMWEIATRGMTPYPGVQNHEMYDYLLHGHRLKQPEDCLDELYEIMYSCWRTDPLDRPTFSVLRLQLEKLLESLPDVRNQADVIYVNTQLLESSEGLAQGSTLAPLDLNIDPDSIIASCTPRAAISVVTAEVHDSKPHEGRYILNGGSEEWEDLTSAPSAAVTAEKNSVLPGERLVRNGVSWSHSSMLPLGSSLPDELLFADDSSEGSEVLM

[3] = biological target: Tyrosine-protein kinase ABL1 (Homo sapiens, UniProt P00519); test: Inhibition of Abl
[4] = Inhibition of CK2
[5] = biological target: Glycogen synthase kinase-3 beta (Homo sapiens, UniProt P49841); test: Inhibition of Gsk3beta
[6] = biological target: T2, Inhibitor of nuclear factor kappa-B kinase subunit beta (Homo sapiens, UniProt O14920); test: Inhibition of IKK-beta
T2 sequence (O14920 whole entry): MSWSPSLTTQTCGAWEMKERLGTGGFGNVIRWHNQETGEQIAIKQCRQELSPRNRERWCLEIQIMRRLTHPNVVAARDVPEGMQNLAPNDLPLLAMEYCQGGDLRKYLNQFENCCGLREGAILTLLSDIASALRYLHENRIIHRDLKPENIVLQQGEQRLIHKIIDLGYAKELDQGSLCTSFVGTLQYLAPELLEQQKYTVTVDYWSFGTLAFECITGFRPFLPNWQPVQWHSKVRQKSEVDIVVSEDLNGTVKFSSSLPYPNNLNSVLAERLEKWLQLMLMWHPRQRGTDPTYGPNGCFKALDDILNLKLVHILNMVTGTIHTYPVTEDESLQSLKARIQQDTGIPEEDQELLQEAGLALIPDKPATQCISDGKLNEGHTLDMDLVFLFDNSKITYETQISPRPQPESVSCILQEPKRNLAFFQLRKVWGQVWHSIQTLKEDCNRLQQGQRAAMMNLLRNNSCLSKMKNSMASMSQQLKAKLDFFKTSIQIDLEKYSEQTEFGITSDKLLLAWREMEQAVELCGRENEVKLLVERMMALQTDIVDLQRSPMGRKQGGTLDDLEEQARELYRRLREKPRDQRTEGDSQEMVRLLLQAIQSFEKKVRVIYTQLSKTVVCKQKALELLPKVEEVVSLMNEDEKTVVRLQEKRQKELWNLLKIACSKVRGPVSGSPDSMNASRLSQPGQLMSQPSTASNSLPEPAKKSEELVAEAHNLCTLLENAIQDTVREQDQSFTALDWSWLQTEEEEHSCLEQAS

[7] = Inhibition of PKA
[8] = biological target: Serine/threonine-protein kinase pim-2 (Homo sapiens, UniProt Q9P1W9); test: Inhibition of Pim-2
[9] = biological target: T3, Protein kinase C zeta type (Homo sapiens, UniProt Q05513); test: Inhibition of PKCzeta
T3 sequence (Q05513 whole entry): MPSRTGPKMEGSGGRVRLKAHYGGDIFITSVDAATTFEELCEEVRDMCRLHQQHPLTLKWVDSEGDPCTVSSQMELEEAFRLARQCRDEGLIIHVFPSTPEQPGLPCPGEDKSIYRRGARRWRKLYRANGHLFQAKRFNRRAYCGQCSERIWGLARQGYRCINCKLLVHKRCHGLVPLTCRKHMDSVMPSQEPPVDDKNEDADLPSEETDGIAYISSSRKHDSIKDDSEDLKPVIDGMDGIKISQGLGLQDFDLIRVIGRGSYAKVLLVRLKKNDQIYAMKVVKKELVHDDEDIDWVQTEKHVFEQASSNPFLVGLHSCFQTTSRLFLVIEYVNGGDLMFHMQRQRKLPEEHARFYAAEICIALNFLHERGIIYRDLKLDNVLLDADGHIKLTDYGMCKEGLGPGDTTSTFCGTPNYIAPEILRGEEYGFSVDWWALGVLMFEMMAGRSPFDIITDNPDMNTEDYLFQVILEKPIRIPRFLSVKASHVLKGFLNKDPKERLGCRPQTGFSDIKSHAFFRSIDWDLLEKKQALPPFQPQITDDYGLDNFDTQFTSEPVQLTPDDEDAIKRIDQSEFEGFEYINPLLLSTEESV

[10] = biological target: Casein kinase I isoform delta (Homo sapiens, UniProt P48730); test: Inhibition of CK1delta
Casein kinase I isoform delta, sequence (P48730 whole entry, canonical isoform): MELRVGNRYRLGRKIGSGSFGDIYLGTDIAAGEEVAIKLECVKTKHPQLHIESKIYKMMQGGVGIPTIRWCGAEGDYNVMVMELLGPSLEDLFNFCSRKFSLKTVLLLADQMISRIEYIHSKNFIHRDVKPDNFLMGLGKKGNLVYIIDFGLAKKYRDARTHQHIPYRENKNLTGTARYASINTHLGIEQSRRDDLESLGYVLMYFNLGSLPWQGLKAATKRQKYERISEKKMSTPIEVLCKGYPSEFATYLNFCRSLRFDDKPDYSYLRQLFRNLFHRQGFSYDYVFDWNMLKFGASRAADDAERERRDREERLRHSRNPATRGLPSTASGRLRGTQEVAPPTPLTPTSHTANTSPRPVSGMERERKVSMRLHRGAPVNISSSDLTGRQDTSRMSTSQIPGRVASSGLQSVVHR

Serine/threonine-protein kinase pim-2, sequence (Q9P1W9 whole entry): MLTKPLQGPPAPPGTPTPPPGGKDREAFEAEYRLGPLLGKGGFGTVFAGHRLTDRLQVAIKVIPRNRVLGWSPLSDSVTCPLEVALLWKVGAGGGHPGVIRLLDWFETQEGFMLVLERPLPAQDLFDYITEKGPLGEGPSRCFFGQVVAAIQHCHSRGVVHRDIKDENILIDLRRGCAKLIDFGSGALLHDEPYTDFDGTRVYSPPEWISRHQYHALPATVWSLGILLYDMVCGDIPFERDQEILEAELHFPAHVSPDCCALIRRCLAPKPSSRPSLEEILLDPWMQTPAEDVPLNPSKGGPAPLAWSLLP
Proto-oncogene tyrosine-protein kinase Src, sequence (P12931 2-536 limits assumed): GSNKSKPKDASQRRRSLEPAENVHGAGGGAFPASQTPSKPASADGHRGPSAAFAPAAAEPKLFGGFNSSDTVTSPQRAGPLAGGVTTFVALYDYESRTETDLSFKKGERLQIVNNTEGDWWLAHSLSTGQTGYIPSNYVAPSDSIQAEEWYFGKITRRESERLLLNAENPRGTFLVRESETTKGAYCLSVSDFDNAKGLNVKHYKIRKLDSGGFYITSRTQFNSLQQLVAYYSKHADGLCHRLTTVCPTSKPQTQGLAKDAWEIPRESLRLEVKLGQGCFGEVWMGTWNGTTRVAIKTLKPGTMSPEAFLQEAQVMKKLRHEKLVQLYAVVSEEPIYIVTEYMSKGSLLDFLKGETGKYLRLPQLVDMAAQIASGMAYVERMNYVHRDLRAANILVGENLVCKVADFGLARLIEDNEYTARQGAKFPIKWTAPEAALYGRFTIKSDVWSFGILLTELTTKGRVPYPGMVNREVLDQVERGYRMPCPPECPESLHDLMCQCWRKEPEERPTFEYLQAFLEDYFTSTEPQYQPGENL
Tyrosine-protein kinase ABL1, sequence (P00519 whole entry): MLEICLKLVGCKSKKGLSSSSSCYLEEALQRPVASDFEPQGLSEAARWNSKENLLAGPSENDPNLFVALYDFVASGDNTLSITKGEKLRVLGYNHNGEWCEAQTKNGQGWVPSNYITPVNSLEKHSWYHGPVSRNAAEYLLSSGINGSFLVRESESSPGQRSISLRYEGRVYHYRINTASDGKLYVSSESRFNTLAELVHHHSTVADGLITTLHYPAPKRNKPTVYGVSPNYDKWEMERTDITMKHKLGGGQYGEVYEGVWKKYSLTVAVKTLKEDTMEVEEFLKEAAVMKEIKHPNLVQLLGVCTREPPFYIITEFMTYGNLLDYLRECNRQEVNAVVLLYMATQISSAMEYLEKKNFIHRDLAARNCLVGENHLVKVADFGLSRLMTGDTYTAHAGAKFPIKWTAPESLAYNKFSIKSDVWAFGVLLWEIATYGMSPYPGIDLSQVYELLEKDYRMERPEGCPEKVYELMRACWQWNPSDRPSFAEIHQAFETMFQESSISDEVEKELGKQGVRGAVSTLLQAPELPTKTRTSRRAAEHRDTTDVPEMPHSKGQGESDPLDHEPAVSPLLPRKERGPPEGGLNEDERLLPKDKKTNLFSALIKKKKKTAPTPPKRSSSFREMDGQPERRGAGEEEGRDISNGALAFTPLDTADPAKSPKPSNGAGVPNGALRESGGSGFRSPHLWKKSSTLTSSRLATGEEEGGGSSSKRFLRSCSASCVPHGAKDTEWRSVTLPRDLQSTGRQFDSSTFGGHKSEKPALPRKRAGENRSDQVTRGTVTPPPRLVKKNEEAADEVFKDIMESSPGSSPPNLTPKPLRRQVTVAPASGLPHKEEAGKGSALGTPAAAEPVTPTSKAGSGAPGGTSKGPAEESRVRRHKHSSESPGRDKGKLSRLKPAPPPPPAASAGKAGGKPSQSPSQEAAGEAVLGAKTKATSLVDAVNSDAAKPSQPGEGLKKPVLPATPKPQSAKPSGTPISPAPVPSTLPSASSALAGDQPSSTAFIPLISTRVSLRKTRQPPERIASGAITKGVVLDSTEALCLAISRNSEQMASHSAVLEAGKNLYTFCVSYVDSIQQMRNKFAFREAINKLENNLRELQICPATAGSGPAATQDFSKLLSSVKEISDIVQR
Glycogen synthase kinase-3 beta, sequence (P49841 whole entry): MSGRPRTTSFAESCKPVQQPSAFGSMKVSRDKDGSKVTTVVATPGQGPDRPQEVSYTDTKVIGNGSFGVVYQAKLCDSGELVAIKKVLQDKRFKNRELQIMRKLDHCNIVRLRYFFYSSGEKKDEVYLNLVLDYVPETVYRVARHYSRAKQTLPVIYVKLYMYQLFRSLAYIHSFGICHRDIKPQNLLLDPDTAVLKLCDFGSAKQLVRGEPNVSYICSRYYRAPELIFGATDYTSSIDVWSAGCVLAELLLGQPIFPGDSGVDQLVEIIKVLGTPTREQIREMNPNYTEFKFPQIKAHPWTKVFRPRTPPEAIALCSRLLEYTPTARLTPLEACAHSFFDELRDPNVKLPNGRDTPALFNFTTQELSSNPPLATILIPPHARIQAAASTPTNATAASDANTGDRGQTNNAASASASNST

| IC50 [1] | IC50 [2] | IC50 [3] | IC50 [4] | IC50 [5] | IC50 [6] | IC50 [7] | IC50 [8] | IC50 [9] | IC50 [10] | SMILES |
| --- | --- | --- | --- | --- | --- | --- | --- | --- | --- | --- |
| > 30 µM | 6.93 µM | > 30 µM | > 30 µM | > 30 µM | > 30 µM | > 30 µM | > 30 µM | > 30 µM | – | O=C(c1cc2cc(F)ccc2[nH]1)N1C[C@]2(CCN(C3CCCNC3)C2)c2ccccc21 (some centres undefined) |
| > 30 µM | 2.44 µM | > 30 µM | > 30 µM | > 30 µM | > 30 µM | > 30 µM | > 30 µM | > 30 µM | 11 µM | O=C(c1cc2ccc(F)cc2[nH]1)N1C[C@]2(CCN(C3CCNC3)C2)c2ccccc21 (some centres undefined) |
| > 30 µM | 0.97 µM | > 30 µM | > 30 µM | > 30 µM | > 30 µM | 28.6 µM | > 30 µM | > 30 µM | 1.73 µM | C[C@@H]1CCC(N2CC[C@]3(CN(C(=O)c4cc5ccc(F)cc5[nH]4)c4ccccc43)C2)CN1 (some centres undefined) |
| > 30 µM | 2.34 µM | > 30 µM | > 30 µM | > 30 µM | > 30 µM | > 30 µM | > 30 µM | > 30 µM | 6.61 µM | C[C@@H]1CCC(N2CC[C@]3(CN(C(=O)c4cc5ccccc5[nH]4)c4ccccc43)C2)CN1 (some centres undefined) |
